Measured values: patent publication US11945822B2, “Pyrazolo-triazine and/or pyrazolo-pxrimidine derivatives as selective inhibitor of cyclin dependent kinase” (QURIENT CO., LTD., priority 2018, dated 2024)

target: T1, CDK7/Cyclin H/MNAT1 (Homo sapiens, UniProt P50613); assay: Enzymatic assay for CDK7 (FRET based LANCE Ultra kinase assay); type: biochemical; conditions: CDK7 over CDK1
T1 construct: purchased Invitrogen PR6749B
Protocol: (§1) Enzymatic Binding Assay Protocol for CDK1, CDK2, CDK5 and CDK7
Inhibition activity of the respective compound on CDK kinase under Km value of ATP was tested in FRET based The LANCE® Ultra kinase assay (Perkin Elmer), which uses a ULight™-labeled peptide substrate and an appropriate Europium-labeled anti-phospho-antibody. […] After 1 min centrifugation at 1000 rpm, Purified CDKs/Cyclin complex were added following concentrations respectively. […] Data was analyzed using XL Fit software.

T1 sequence (P50613 whole entry): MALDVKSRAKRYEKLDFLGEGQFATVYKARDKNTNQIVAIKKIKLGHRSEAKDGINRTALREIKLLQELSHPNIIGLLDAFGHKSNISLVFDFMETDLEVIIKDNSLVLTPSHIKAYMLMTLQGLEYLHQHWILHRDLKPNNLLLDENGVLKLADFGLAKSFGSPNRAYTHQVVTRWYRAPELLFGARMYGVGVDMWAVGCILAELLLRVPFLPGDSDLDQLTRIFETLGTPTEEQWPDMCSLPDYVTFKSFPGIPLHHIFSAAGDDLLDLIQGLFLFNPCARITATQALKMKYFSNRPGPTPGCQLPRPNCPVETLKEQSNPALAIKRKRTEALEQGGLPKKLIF
T1 sequence (P51946 whole entry partner): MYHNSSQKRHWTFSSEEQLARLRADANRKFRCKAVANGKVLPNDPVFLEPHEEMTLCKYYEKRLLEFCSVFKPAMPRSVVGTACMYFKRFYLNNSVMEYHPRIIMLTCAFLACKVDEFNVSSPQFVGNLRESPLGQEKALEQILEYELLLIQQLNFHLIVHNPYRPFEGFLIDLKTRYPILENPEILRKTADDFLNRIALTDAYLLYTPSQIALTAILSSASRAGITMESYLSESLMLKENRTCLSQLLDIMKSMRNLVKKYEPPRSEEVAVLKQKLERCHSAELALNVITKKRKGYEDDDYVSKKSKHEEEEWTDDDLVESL
T1 sequence (P51948 whole entry partner): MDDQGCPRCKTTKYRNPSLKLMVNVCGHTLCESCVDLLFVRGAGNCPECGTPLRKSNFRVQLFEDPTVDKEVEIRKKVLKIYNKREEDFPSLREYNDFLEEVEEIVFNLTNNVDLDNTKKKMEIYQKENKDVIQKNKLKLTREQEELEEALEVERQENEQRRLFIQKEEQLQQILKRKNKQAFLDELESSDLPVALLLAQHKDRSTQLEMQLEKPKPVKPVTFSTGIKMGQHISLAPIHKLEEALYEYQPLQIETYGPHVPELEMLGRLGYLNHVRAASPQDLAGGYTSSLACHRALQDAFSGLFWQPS

SMILES	CDK1/CDK7: Selectivity of CDK7 inhibition over CDK1 inhibition
CC(C)c1cnn2c(NCc3ccccc3-n3cccn3)nc([C@H]3CC[C@H](N)CC3)nc12 [Compound 25]	B (B=less than 200 fold, but greater than 20 fold)
CC(C)c1cnn2c(NCc3cccc4cnn(C)c34)nc(N3CCC(N)CC3)nc12 [Compound 10]	B (B=less than 200 fold, but greater than 20 fold)
CC(C)c1cnn2c(NCc3c[nH]c4ccccc34)nc(N3CCC(N)CC3)nc12 [Compound 28]	B (B=less than 200 fold, but greater than 20 fold)
CCCNC(=O)Nc1ccccc1CNc1nc(N2CCC(N)CC2)nc2c(C(C)C)cnn12 [Compound 11]	A (A=greater than 200 fold)
Cc1nc2c(CNc3nc(N4CCC(N)CC4)nc4c(C(C)C)cnn34)cccc2o1 [Compound 33]	B (B=less than 200 fold, but greater than 20 fold)
Cc1ccc(CNc2nc(N3CCC(N)CC3)nc3c(C(C)C)cnn23)cc1-n1cccn1 [Compound 65]	B (B=less than 200 fold, but greater than 20 fold)

same assay, conditions: CDK7 over CDK2

SMILES	CDK2/CDK7: Selectivity of CDK7 inhibition over CDK2 inhibition
CC(C)c1cnn2c(NCc3ccccc3-n3cccn3)nc([C@H]3CC[C@H](N)CC3)nc12 [Compound 25]	C (C=less than 20 fold)
CC(C)c1cnn2c(NCc3cccc4cnn(C)c34)nc(N3CCC(N)CC3)nc12 [Compound 10]	B (B=less than 200 fold, but greater than 20 fold)
CC(C)c1cnn2c(NCc3c[nH]c4ccccc34)nc(N3CCC(N)CC3)nc12 [Compound 28]	B (B=less than 200 fold, but greater than 20 fold)
CCCNC(=O)Nc1ccccc1CNc1nc(N2CCC(N)CC2)nc2c(C(C)C)cnn12 [Compound 11]	B (B=less than 200 fold, but greater than 20 fold)
Cc1nc2c(CNc3nc(N4CCC(N)CC4)nc4c(C(C)C)cnn34)cccc2o1 [Compound 33]	B (B=less than 200 fold, but greater than 20 fold)
Cc1ccc(CNc2nc(N3CCC(N)CC3)nc3c(C(C)C)cnn23)cc1-n1cccn1 [Compound 65]	B (B=less than 200 fold, but greater than 20 fold)

same assay, conditions: CDK7 over CDK5

SMILES	CDK5/CDK7: Selectivity of CDK7 inhibition over CDK5 inhibition
CC(C)c1cnn2c(NCc3cccc4cnn(C)c34)nc(N3CCC(N)CC3)nc12 [Compound 10]	C (C=less than 20 fold)
CC(C)c1cnn2c(NCc3c[nH]c4ccccc34)nc(N3CCC(N)CC3)nc12 [Compound 28]	C (C=less than 20 fold)
CCCNC(=O)Nc1ccccc1CNc1nc(N2CCC(N)CC2)nc2c(C(C)C)cnn12 [Compound 11]	B (B=less than 200 fold, but greater than 20 fold)

Other lines, results leading:

CDK5/CDK7: Selectivity of CDK7 inhibition over CDK5 inhibition	SMILES
C (C=less than 20 fold)	CC(C)c1cnn2c(NCc3ccccc3-n3cccn3)nc([C@H]3CC[C@H](N)CC3)nc12 [Compound 25]
C (C=less than 20 fold)	Cc1nc2c(CNc3nc(N4CCC(N)CC4)nc4c(C(C)C)cnn34)cccc2o1 [Compound 33]
C (C=less than 20 fold)	Cc1ccc(CNc2nc(N3CCC(N)CC3)nc3c(C(C)C)cnn23)cc1-n1cccn1 [Compound 65]

same assay, conditions: read-out: CDK7 enzymatic activity (IC50 range)

SMILES	IC50 [nM]
CC(C)c1cnn2c(NCc3cccc4cnn(C)c34)nc(N3CCC(N)CC3)nc12 [Compound 10]	< 100
CC(C)c1cnn2c(NCc3c[nH]c4ccccc34)nc(N3CCC(N)CC3)nc12 [Compound 28]	< 100
CCCNC(=O)Nc1ccccc1CNc1nc(N2CCC(N)CC2)nc2c(C(C)C)cnn12 [Compound 11]	< 100

More lines, now with the values ahead:

IC50 [nM]	SMILES
< 100	CC(C)c1cnn2c(NCc3ccccc3-n3cccn3)nc([C@H]3CC[C@H](N)CC3)nc12 [Compound 25]
< 100	Cc1nc2c(CNc3nc(N4CCC(N)CC4)nc4c(C(C)C)cnn34)cccc2o1 [Compound 33]
< 100	Cc1ccc(CNc2nc(N3CCC(N)CC3)nc3c(C(C)C)cnn23)cc1-n1cccn1 [Compound 65]

target: T2, CDK5/p25 (Homo sapiens, UniProt Q00535); assay: Enzymatic assay for CDK5 (FRET based LANCE Ultra kinase assay); type: biochemical; conditions: read-out: CDK5 enzymatic activity (IC50 range)
T2 construct: purchased Invitrogen PR8543B
T2 sequence (Q00535 whole entry): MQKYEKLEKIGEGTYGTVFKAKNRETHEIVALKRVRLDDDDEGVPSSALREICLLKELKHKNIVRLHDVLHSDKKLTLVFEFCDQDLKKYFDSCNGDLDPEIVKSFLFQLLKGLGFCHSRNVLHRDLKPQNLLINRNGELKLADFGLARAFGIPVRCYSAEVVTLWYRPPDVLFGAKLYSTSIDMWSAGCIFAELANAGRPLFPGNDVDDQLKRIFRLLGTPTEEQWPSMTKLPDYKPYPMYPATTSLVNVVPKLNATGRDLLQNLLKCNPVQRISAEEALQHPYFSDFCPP
T2 sequence (Q15078 99-307 partner limits assumed): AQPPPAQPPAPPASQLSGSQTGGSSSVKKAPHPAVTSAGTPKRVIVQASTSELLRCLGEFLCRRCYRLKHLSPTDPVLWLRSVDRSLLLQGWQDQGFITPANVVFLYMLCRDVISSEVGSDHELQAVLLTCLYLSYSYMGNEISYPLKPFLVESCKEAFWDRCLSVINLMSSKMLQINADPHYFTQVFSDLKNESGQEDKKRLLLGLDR
Protocol: as §1
(§2) Inhibition activity of the respective compound on CDK kinase under Km value of ATP was tested in FRET based The LANCE® Ultra kinase assay (Perkin Elmer), which uses a ULight™-labeled peptide substrate and an appropriate Europium-labeled anti-phospho-antibody. Test compounds were made with DMSO solutions, and then 4-fold serial dilutions for 8 doses were prepared using automated liquid handler (POD810, LABCYTE) and 80 nL/well of diluted compound solutions were added into the 384-well plates (Greiner, Cat #784075). And then 68 nM of ULight-MBP peptide (Perkin Elmer, Cat #TRF0109-M) and 5 ul/well of ATP (Sigma, Cat #A7699) were added to the plate. After 1 min centrifugation at 1000 rpm, Purified CDKs/Cyclin complex were added following concentrations respectively. 24 uM for CDK1/Cyclin B (Invitrogen, Cat #PR4768C), 22 uM for CDK2/Cyclin A (Invitrogen, Cat #PV6290), 10 uM for CDK5/p25 (Invitrogen, Cat #PR8543B) and […] for CDK7/Cyclin H/MNAT1 (Invitrogen, Cat #PR6749B) were added to the each corresponding plate for CDK1, CDK2, CDK5 and CDK7. Incubate at 23° C. for 60 min and then Eu-labeled anti-phospho-Myelin Basic Protein (PE, Cat #TRF0201-M) and EDTA (Invitrogen, Cat #15575038) mixture in Lance Detection Buffer (Perkin Elmer, Cat #CR97100) was added in each well. After additional incubation at 23° C. for 60 min, test articles were measured the fluorescence using Envision leader (Perkin Elmer, USA) [Laser as excitation light; […] as the first and the second emission filter]. Data was analyzed using XL Fit software.

SMILES	IC50 [nM]
CC(C)c1cnn2c(NCc3cccc4cnn(C)c34)nc(N3CCC(N)CC3)nc12 [Compound 10]	< 100
CC(C)c1cnn2c(NCc3c[nH]c4ccccc34)nc(N3CCC(N)CC3)nc12 [Compound 28]	100 to 1000
CCCNC(=O)Nc1ccccc1CNc1nc(N2CCC(N)CC2)nc2c(C(C)C)cnn12 [Compound 11]	100 to 1000

Continued, values first:

IC50 [nM]	SMILES
< 100	CC(C)c1cnn2c(NCc3ccccc3-n3cccn3)nc([C@H]3CC[C@H](N)CC3)nc12 [Compound 25]
< 100	Cc1nc2c(CNc3nc(N4CCC(N)CC4)nc4c(C(C)C)cnn34)cccc2o1 [Compound 33]
100 to 1000	Cc1ccc(CNc2nc(N3CCC(N)CC3)nc3c(C(C)C)cnn23)cc1-n1cccn1 [Compound 65]

tested on: H460; assay: Cellular H460 viability assay (CellTiter-Glo, 72 hours); type: cell-based; conditions: Homo sapiens, NCI-H460
Protocol: All cell lines were routinely tested for mycoplasma.
The effect of the CDK7 inhibitor to inhibit the growth of target cancer cells was evaluated through the 72 hours time period of viability assay. Briefly, the candidate cell line ware plated in 96 well plate at the following density of cells respectively. […] DMSO solvent without compound served as a control and final DMSO concentration less than 0.1%. After 72 hours of incubation at 37° C., 5% CO2 incubator, cells were analyzed for the viability using the CellTiter-Glo Luminescent Cell Viability Assay (Promega, Cat #G7570). All viability assays were performed in duplicate and Luminescence was read using an Envision (Perkin Elmer, USA). Data was analyzed using XLfit software.

SMILES	IC50 [nM]
CC(C)c1cnn2c(NCc3cccc4cnn(C)c34)nc(N3CCC(N)CC3)nc12 [Compound 10]	< 1000
CCCNC(=O)Nc1ccccc1CNc1nc(N2CCC(N)CC2)nc2c(C(C)C)cnn12 [Compound 11]	< 1000
CC(C)c1cnn2c(NCc3ccccc3Br)nc(N3CCC(N)CC3)nc12 [Compound 22]	< 1000
CC(C)c1cnn2c(NCc3ccccc3-n3cccn3)nc(C3CCNCC3)nc12 [Compound 23]	< 1000

Further lines, results first:

IC50 [nM]	SMILES
1000 to 10000	NC1CCN(c2nc(NCc3ccccc3-n3cccn3)n3ncc(Cl)c3n2)CC1 [Compound 29]
< 1000	CC(C)c1cnn2c(NCc3ccccc3-n3cccn3)nc([C@H]3CC[C@H](N)CC3)nc12 [Compound 25]
< 1000	Cc1nc2c(CNc3nc(N4CCC(N)CC4)nc4c(C(C)C)cnn34)cccc2o1 [Compound 33]
> 10000	CC(C)c1cnn2c(NCc3ccccc3-n3cccn3)nc(C(=O)N3CCN(C)CC3)nc12 [Compound 7]
1000 to 10000	Cc1ccc(CNc2nc(N3CCC(N)CC3)nc3c(C(C)C)cnn23)cc1-n1cccn1 [Compound 65]

target: T3, CDK2/Cyclin A (Homo sapiens, UniProt P24941); assay: Enzymatic assay for CDK2 (FRET based LANCE Ultra kinase assay); type: biochemical; conditions: read-out: CDK2 enzymatic activity (IC50 range)
T3 construct: purchased Invitrogen PV6290
Protocol: as §1, §2

SMILES	IC50 [nM]
CC(C)c1cnn2c(NCc3cccc4cnn(C)c34)nc(N3CCC(N)CC3)nc12 [Compound 10]	100 to 1000
CC(C)c1cnn2c(NCc3c[nH]c4ccccc34)nc(N3CCC(N)CC3)nc12 [Compound 28]	100 to 1000
CCCNC(=O)Nc1ccccc1CNc1nc(N2CCC(N)CC2)nc2c(C(C)C)cnn12 [Compound 11]	100 to 1000

Continued, values first:

IC50 [nM]	SMILES
< 100	CC(C)c1cnn2c(NCc3ccccc3-n3cccn3)nc([C@H]3CC[C@H](N)CC3)nc12 [Compound 25]
100 to 1000	Cc1nc2c(CNc3nc(N4CCC(N)CC4)nc4c(C(C)C)cnn34)cccc2o1 [Compound 33]
> 1000	Cc1ccc(CNc2nc(N3CCC(N)CC3)nc3c(C(C)C)cnn23)cc1-n1cccn1 [Compound 65]

target: T4, CDK1/Cyclin B (Homo sapiens, UniProt P06493); assay: Enzymatic assay for CDK1 (FRET based LANCE Ultra kinase assay); type: biochemical; conditions: read-out: CDK1 enzymatic activity (IC50 range)
T4 construct: purchased Invitrogen PR4768C
T4 sequence (P06493 whole entry): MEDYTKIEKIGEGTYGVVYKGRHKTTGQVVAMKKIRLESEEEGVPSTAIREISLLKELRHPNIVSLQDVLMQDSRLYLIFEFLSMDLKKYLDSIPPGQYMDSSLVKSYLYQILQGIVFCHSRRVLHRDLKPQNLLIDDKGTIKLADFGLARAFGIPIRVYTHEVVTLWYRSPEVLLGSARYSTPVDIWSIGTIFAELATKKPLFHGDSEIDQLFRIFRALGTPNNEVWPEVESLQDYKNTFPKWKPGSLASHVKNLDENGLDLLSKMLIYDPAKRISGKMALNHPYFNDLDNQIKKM
T4 sequence (P14635 whole entry partner): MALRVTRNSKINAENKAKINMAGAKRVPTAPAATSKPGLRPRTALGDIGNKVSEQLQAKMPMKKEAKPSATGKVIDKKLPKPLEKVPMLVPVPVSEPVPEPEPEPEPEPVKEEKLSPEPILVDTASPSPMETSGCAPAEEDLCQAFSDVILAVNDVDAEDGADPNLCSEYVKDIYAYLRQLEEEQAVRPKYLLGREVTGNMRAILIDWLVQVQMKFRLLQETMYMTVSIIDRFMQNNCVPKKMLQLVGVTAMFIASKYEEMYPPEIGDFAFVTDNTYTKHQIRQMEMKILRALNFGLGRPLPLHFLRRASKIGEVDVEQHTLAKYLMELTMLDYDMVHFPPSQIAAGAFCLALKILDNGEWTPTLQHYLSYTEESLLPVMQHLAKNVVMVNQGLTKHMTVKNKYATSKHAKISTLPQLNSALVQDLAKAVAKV
Protocol: as §1, §2

SMILES	IC50 [nM]
CC(C)c1cnn2c(NCc3cccc4cnn(C)c34)nc(N3CCC(N)CC3)nc12 [Compound 10]	100 to 1000
CC(C)c1cnn2c(NCc3c[nH]c4ccccc34)nc(N3CCC(N)CC3)nc12 [Compound 28]	> 1000
CCCNC(=O)Nc1ccccc1CNc1nc(N2CCC(N)CC2)nc2c(C(C)C)cnn12 [Compound 11]	> 1000

Further lines, results first:

IC50 [nM]	SMILES
100 to 1000	CC(C)c1cnn2c(NCc3ccccc3-n3cccn3)nc([C@H]3CC[C@H](N)CC3)nc12 [Compound 25]
100 to 1000	Cc1nc2c(CNc3nc(N4CCC(N)CC4)nc4c(C(C)C)cnn34)cccc2o1 [Compound 33]
> 1000	Cc1ccc(CNc2nc(N3CCC(N)CC3)nc3c(C(C)C)cnn23)cc1-n1cccn1 [Compound 65]
